Here are results for 42 molecules from patent US8778966B2, “Quinolinone derivatives as PARP and tank inhibitors” (Janssen Pharmaceutica, NV, priority 2007, dated 2014).

One assay concerns HCT116 cells. The experiment in a line: Antiproliferative activity, Alamar Blue assay, HCT116 cells. Format: cell-based, human. Conditions: Homo sapiens, HCT-116, HCT116 cells, read-out: HCT116 antiproliferative activity pIC50 (converted). A digest of the protocol: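 Readout is resazurin fluorescence (ex 540, em 590 nm) after a 4 h dye incubation at 37 °C, following 4-day compound treatment of HCT116 cells plated 24 h earlier. Results expressed as % viable cells versus untreated; pIC50 derived from probit-fitted IC50.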

Another assay concerns PC-3 cells. The experiment in a line: Antiproliferative activity, Alamar Blue assay, PC-3 cells. The format is cell-based, human. Conditions: Homo sapiens, PC-3, PC3 cells, read-out: PC3 antiproliferative activity pIC50 (converted). A digest of the protocol: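 Resazurin-based fluorescence (540 nm ex/590 nm em) measured after 4-day compound treatment plus 24 hrs dye incubation at 37° C. Cells plated at 4.5×10^3 cells/ml, adhered 24 hr first. pIC50 from probit-derived IC50 on % viable cells versus untreated, triplicate wells.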
Background: Alamar Blue is a resazurin reagent that responds to reducing activity.

Read-outs that look alike come from different tables or passages of the source. Bounds are passed on as bounds.

In the case of `CCc1cc2ccc([C@](C)(C#N)[C@@H](C)c3ccccc3)cc2[nH]c1=O` [Compound 199], the IC50 with HCT116 cells (Alamar Blue) and in the assay with PC-3 cells (Alamar Blue) was 10000 nM each time.
`CC(C)c1cc2ccc(C(C)(C#N)Cc3ccccc3)cc2[nH]c1=O` (stereo not drawn) [Compound 38]: the IC50 in the assay with HCT116 cells and in the assay on PC-3 cells was over 10000 nM throughout.
As to `CCc1cc2cc(OC)c(C(C)(C#N)Cc3ccccc3)cc2[nH]c1=O` (stereo not drawn) [Compound 294], the IC50 was 6310 nM in the assay on HCT116 cells (Alamar Blue) and 10000 nM in the assay with PC-3 cells (Alamar Blue).
Turning to `CCc1cc2ccc(C(C)(C#N)Cc3cnc(Cl)nc3Cl)cc2[nH]c1=O` (stereo not drawn) [Compound 306], the IC50 in the assay with HCT116 cells (Alamar Blue) and with PC-3 cells (Alamar Blue) was 2000 nM throughout.
With `CCc1cc2ccc(C(C)(C#N)Cc3nccn3CC)cc2[nH]c1=O` (stereo not drawn) [Compound 337], the IC50 in the assay with HCT116 cells (Alamar Blue) and with PC-3 cells (Alamar Blue) was 5010 nM each time.
On to `CCc1cc2ccc(C(C)(C#N)CNCc3cccc(C#N)c3)cc2[nH]c1=O` (stereo not drawn) [Compound 301], for which the figures for the IC50 in the assay with HCT116 cells (Alamar Blue) and in the assay on PC-3 cells (Alamar Blue) were 3980 nM and 10000 nM, respectively.
Take `CCc1cc2ccc(C(C)(C#N)Cc3cccc(I)n3)cc2[nH]c1=O` (stereo not drawn) [Compound 214]: the IC50 was 501 nM with HCT116 cells (Alamar Blue) and 631 nM in the assay with PC-3 cells (Alamar Blue).
Regarding `CCc1cc2ccc(C(C)(C#N)Cc3cccc(C#N)n3)cc2[nH]c1=O` (stereo not drawn) [Compound 329], the IC50 was 316 nM with HCT116 cells (Alamar Blue) and 501 nM in the assay on PC-3 cells (Alamar Blue).
`CCc1cc2ccc(C(C)(C#N)Cc3cc(OCCOC)nc(C)n3)cc2[nH]c1=O` (stereo not drawn) [Compound 363]: the IC50 in the assay on HCT116 cells (Alamar Blue) and in the assay on PC-3 cells (Alamar Blue) was 5010 nM throughout.
As to `CCc1cc2ccc(C(C)(C#N)Cc3cccc(OCCOC)n3)cc2[nH]c1=O` (stereo not drawn) [Compound 219], the IC50 was 5010 nM with HCT116 cells (Alamar Blue) and 2510 nM in the assay on PC-3 cells (Alamar Blue).
Turning to `CCc1cc2ccc(C(C)(C#N)Cc3cccc(OC[C@@H](O)CO)c3)cc2[nH]c1=O` (stereo partly drawn) [Compound 56], the IC50 in the assay with HCT116 cells (Alamar Blue) was 3160 nM; in the assay on PC-3 cells (Alamar Blue), 6310 nM.
For `CCc1cc2ccc(C(C)(C#N)Cc3cccc(C#CCO)c3)cc2[nH]c1=O` (stereo not drawn) [Compound 183], the IC50 was 63.1 nM with HCT116 cells (Alamar Blue) and 316 nM with PC-3 cells (Alamar Blue).
`CCc1cc2ccc(C(C)(C#N)CCOc3cccc(C(F)(F)F)c3)cc2[nH]c1=O` (stereo not drawn) [Compound 274]: the IC50 was 6310 nM with HCT116 cells (Alamar Blue) and 3980 nM in the assay with PC-3 cells (Alamar Blue).
For `CCc1cc2ccc(C(C)(C#N)Cc3nccc(OCCOC)n3)cc2[nH]c1=O` (stereo not drawn) [Compound 369], the IC50 in the assay on HCT116 cells (Alamar Blue) was 3980 nM; with PC-3 cells (Alamar Blue), 6310 nM.
On to `CCc1cc2ccc(C(C)(C#N)Cc3cccc(C#CCN(C)C)c3)cc2[nH]c1=O` (stereo not drawn) [Compound 298], for which the values for the IC50 in the assay on HCT116 cells (Alamar Blue) and in the assay on PC-3 cells (Alamar Blue) were 2510 nM and 6310 nM, respectively.
Turning to `Cc1cc2ccc([C@](C)(C#N)Cc3cccc(C#N)c3)cc2[nH]c1=O` [Compound 36], the IC50 in the assay with HCT116 cells is 50.1 nM; with PC-3 cells it was 200 nM.
As for `CCc1cc2ccc(C(C)(C#N)C(C)c3ccccc3)cc2[nH]c1=O` (stereo not drawn) [Compound 198], the IC50 in the assay with HCT116 cells (Alamar Blue) and in the assay with PC-3 cells (Alamar Blue) was 2000 nM each time.
As for `CCc1cc2ccc(C(C)(C#N)Cc3cccc(C#CCOC)c3)cc2[nH]c1=O` (stereo not drawn) [Compound 297], the IC50 in the assay with HCT116 cells (Alamar Blue) was 398 nM; with PC-3 cells (Alamar Blue), 1000 nM.
For `CCc1cc2ccc(C(C)(C#N)Cc3cc(OC)nc(C)n3)cc2[nH]c1=O` (stereo not drawn) [Compound 366], the IC50 in the assay with HCT116 cells (Alamar Blue) and in the assay on PC-3 cells (Alamar Blue) was 631 nM in each case.
In the case of `CCc1cc2ccc(C(C)(C#N)Cc3cc(OCCOC)nc(Cl)n3)cc2[nH]c1=O` (stereo not drawn) [Compound 367], the values for the IC50 in the assay on HCT116 cells (Alamar Blue) and with PC-3 cells (Alamar Blue) were 2510 nM and 3980 nM, respectively.
Regarding `CCC[C@@](C#N)(Cc1ccccc1)c1ccc2cc(CC)c(=O)[nH]c2c1` (single isomer, unassigned) [Compound 263], the IC50 with HCT116 cells (Alamar Blue) was 3160 nM; in the assay with PC-3 cells (Alamar Blue), 5010 nM.
Turning to `CCc1cc2ccc([C@](C)(C#N)C[C@@H]3Cc4cc(C)ccc4O3)cc2[nH]c1=O` (single isomer, unassigned) [Compound 400], the IC50 in the assay on HCT116 cells (Alamar Blue) and in the assay with PC-3 cells (Alamar Blue) was 10000 nM throughout.
With `CCc1cc2ccc(C(C)(C#N)Cc3cc(OC)nc(OC)n3)cc2[nH]c1=O` (stereo not drawn) [Compound 358], the figures for the IC50 with HCT116 cells (Alamar Blue) and in the assay with PC-3 cells (Alamar Blue) were 3160 nM and 2510 nM, respectively.
For `CCc1cc2ccc(C(C)(C#N)Cc3cccc(CNS(C)(=O)=O)c3)cc2[nH]c1=O` (stereo not drawn) [Compound 170], the IC50 in the assay on HCT116 cells (Alamar Blue) is 5010 nM; in the assay with PC-3 cells (Alamar Blue) it was 10000 nM.
On to `CCc1cc2ccc(C(C)(C#N)Cc3nc(Cl)cc(OCCOC)n3)cc2[nH]c1=O` (stereo not drawn) [Compound 370], for which the figures for the IC50 in the assay with HCT116 cells (Alamar Blue) and in the assay on PC-3 cells (Alamar Blue) were 1580 nM and 2510 nM, respectively.
On to `CCc1cc2ccc(C(C)(C#N)Cc3cc(OC)ccn3)cc2[nH]c1=O` (stereo not drawn) [Compound 373], for which the IC50 in the assay on HCT116 cells (Alamar Blue) was 7940 nM; with PC-3 cells (Alamar Blue) it was 10000 nM.
For `CCc1cc2ccc([C@](C)(C#N)Cc3cccc(N(C)C)c3)cc2[nH]c1=O` (single isomer, unassigned) [Compound 259] the same measures were 10000 nM and 10000 nM.
Take `CCc1cc2ccc(C(C)(C#N)Cc3cnc(OC)nc3OC)cc2[nH]c1=O` (stereo not drawn) [Compound 357]: the IC50 with HCT116 cells (Alamar Blue) and with PC-3 cells (Alamar Blue) was 398 nM each time.
In the case of `CCc1cc2ccc([C@](C)(C#N)Cc3cccc(C#N)c3)cc2[nH]c1=O` (single isomer, unassigned) [Compound 269], the values for the IC50 with HCT116 cells (Alamar Blue) and with PC-3 cells (Alamar Blue) were 200 nM and 398 nM, respectively.
Take `CCCn1ccnc1CC(C)(C#N)c1ccc2cc(CC)c(=O)[nH]c2c1` (stereo not drawn) [Compound 335]: the IC50 with HCT116 cells (Alamar Blue) was 5010 nM; in the assay with PC-3 cells (Alamar Blue) it was 10000 nM.
For the molecule `CCc1cc2ccc(C(C)(C#N)Cc3cccc(C)n3)cc2[nH]c1=O` (stereo not drawn) [Compound 343], the IC50 in the assay on HCT116 cells (Alamar Blue) is 794 nM; in the assay with PC-3 cells (Alamar Blue), 2000 nM.
As to `COc1ccccc1-c1nc(CC(C)(C#N)c2ccc3cc(C)c(=O)[nH]c3c2)no1` (stereo not drawn) [Compound 33], the IC50 was 794 nM with HCT116 cells and 2510 nM in the assay on PC-3 cells.
On to `CCOC(=O)c1cccc(CC(C)(C#N)c2ccc3cc(CC)c(=O)[nH]c3c2)n1` (stereo not drawn) [Compound 215], for which the IC50 with HCT116 cells (Alamar Blue) was 1580 nM; in the assay on PC-3 cells (Alamar Blue), 6310 nM.
Turning to `CCc1cc2ccc(C(C#N)(CC)Cc3ccccc3)cc2[nH]c1=O` (stereo not drawn) [Compound 32], the IC50 with HCT116 cells was 2000 nM; in the assay on PC-3 cells, 5010 nM.
Turning to `CCc1cc2cc(F)c(C(C)(C#N)Cc3cccc(C#N)c3)cc2[nH]c1=O` (stereo not drawn) [Compound 175], the IC50 was 631 nM with HCT116 cells (Alamar Blue) and 1000 nM with PC-3 cells (Alamar Blue).
Take `CCc1cc2ccc(C(C)(C#N)Cc3cccc(CN)n3)cc2[nH]c1=O` (stereo not drawn) [Compound 221]: the IC50 in the assay on HCT116 cells (Alamar Blue) was 1260 nM; in the assay on PC-3 cells (Alamar Blue) it was 1000 nM.
`CCc1cc2ccc(C(C)(C#N)Cc3ncc(C)c(OC)c3C)cc2[nH]c1=O` (stereo not drawn) [Compound 311]: the IC50 with HCT116 cells (Alamar Blue) is 3160 nM; with PC-3 cells (Alamar Blue), 7940 nM.
Consider `CCc1cc2ccc(C(C)(C#N)Cc3cccc(N(C)C)n3)cc2[nH]c1=O` (stereo not drawn) [Compound 213], for which the IC50 in the assay on HCT116 cells (Alamar Blue) and with PC-3 cells (Alamar Blue) was 501 nM each time.
Regarding `CCc1cc2ccc([C@@](C)(C#N)Cc3cccc(N(C)C)c3)cc2[nH]c1=O` (single isomer, unassigned) [Compound 258], the IC50 with HCT116 cells (Alamar Blue) is 251 nM; in the assay with PC-3 cells (Alamar Blue), 316 nM.
Regarding `CCc1cc2ccc(C(C)(C#N)Cc3cccc(COC)n3)cc2[nH]c1=O` (stereo not drawn) [Compound 216], the IC50 with HCT116 cells (Alamar Blue) was 2000 nM; in the assay on PC-3 cells (Alamar Blue), 10000 nM.
As to `CCc1c(C)c2ccc(C(C)(C#N)Cc3cccc(C#N)c3)cc2[nH]c1=O` (stereo not drawn) [Compound 181], the IC50 in the assay with HCT116 cells (Alamar Blue) was 2510 nM; with PC-3 cells (Alamar Blue), 3980 nM.
For `CCc1c(Cl)c2ccc(C(C)(C#N)Cc3cccc(C#N)c3)cc2[nH]c1=O` (stereo not drawn) [Compound 293], the figures for the IC50 in the assay on HCT116 cells (Alamar Blue) and with PC-3 cells (Alamar Blue) were 794 nM and 6310 nM, respectively.
